As to `Cc1ccc(C(O)C(=O)c2ccc(Br)cc2)cc1` (stereo not drawn), the melting point fell in the range of 80 to 82 °C.

With `CCN(C#N)C(=O)C(C)Oc1ccc(Oc2cnc3cc(F)ccc3n2)cc1` (stereo not drawn), the melting point was 108 to 111 °C.

Consider `Cc1c(NC(=O)C(CSC(=O)C(C)(C)C)Cc2ccccc2)cccc1C(=O)O` (stereo not drawn), for which the melting point was in the range of 117 to 120 °C.

Turning to `O=C1NCCc2c(-c3ccc4ccccc4c3)[nH]c3cccc1c23`, the melting point was in the range of 261 to 262 °C.

Take `CC(=O)OCC1(COC(C)=O)CC1(Br)Cn1cc(C)c(=O)[nH]c1=O` (stereo not drawn): the melting point is 197 to 198 °C.

`Nc1c(NCCCO)c(=O)c1=O` yielded a melting point of 256 to 258 °C.

On to `O=C(O)Cn1cc(Cc2nc3c(F)c(F)cc(F)c3s2)c2cccc(Br)c21`, for which the melting point lay in the range of 228 to 230 °C.

Regarding `O=C(Cl)c1c2ccccc2nc2ccccc12`, the melting point turned out to be 135 °C.

`CCOC(=O)c1sc(C)nc1OCCCc1cc(OC(C)C)nn1Cc1ccc(Cl)cc1Cl` gave a melting point of 92 to 93 °C.

In the case of `CCCCc1ncc(/C=C/CC(=O)O)n1Cc1ccccc1Cl`, the melting point is 135 to 137 °C.

In turn, `CC(C)(COc1ccc([N+](=O)[O-])cc1)c1ccccc1` came in with a melting point of 79 to 80 °C.

The compound `FC(F)C(F)(F)Sc1nc(-c2cccs2)c(-c2cccs2)[nH]1` gave a melting point of 162 to 164 °C.

In turn, `COC(=O)Cc1ccc2oc(-c3ccc(OC)c(OC)c3)c(SC)c2c1` came in with a melting point of 91 °C.

For the compound `O=C(Nc1cccc(-c2cnc(-c3cccc(NC(=O)c4ccccn4)c3)[nH]2)c1)c1ccccn1`, the melting point lay within 208 to 210 °C.

As to `CC(C)(C)OC(=O)NC1CCN(C2CCN(Cc3ccccc3)CC2)C1` (stereo not drawn), the melting point came out at 118 °C.

The compound `CCCCc1nc2cccc(C(=O)OCC)c2n1Cc1ccc(-c2ccccc2-c2nnn[nH]2)cc1` registered a melting point of 138 to 139 °C.

For `CC1CC(=O)NN=C1c1cc2cc(O)c(O)cc2s1` (stereo not drawn), the melting point was over 270 °C.

Compound `OCCOc1ccc(C2CCc3ccccc3O2)cc1` (stereo not drawn) registered a melting point of 84 to 85 °C.

With `CC(C)n1c(=O)[nH]c2cccc(OCc3ccccc3)c21`, the melting point stood at 224 °C.

Compound `Cc1cc(-c2cc(C(F)F)n3ncc(-c4ccncc4)c3n2)ccc1C(F)(F)F` yielded a melting point of 236 °C.

`Cn1cc(C2=C(c3cn(C4CCN(CC(F)(F)C(F)(F)C(F)(F)F)CC4)c4ccccc34)C(=O)NC2=O)c2ccccc21` yielded a melting point of 231 to 234 °C.

The compound `Cc1cc(-c2cnn3c(C(F)(F)F)cc(-c4ccc(C(F)(F)F)c(C(F)(F)F)c4)nc23)ccn1` displayed a melting point of 223 °C.

For the compound `CCC(=O)NCCc1cc(-c2cccc(C(=O)OC)c2)cc2ccc(OC)cc12`, the melting point lay within 113 to 115 °C.

In the case of `CC(C)(C)OC(=O)NC(Cc1ccccc1)C(=O)NC(Cc1ccccc1)C(=O)NCCc1c[nH]cn1` (stereo not drawn), the melting point fell in the range of 175 to 177 °C.

In the case of `Cc1ccc(S(=O)(=O)NC(=O)c2cccc(OCc3csc(-c4ccccc4)n3)c2)cc1`, the melting point lay within 170 to 172 °C.

For `CCCCOc1nsnc1S(C)(=O)=O`, the melting point is 39 to 40 °C.

`COc1cc(C(C)=NOCc2ccc3nonc3c2)ccc1F` had a melting point of 65 °C.

`CCC1(CC)c2cc(CO)c(CO)cc2C(CC)(CC)N1Cc1ccccc1`: the melting point fell in the range of 155 to 158 °C.

Turning to `CC(C)N(CCOc1ccc2c(=O)c3ccc(OCCN(C(C)C)C(C)C)cc3oc2c1)C(C)C`, the melting point is 118 °C.

In turn, `CN(C)C(=O)Nc1ccc(Oc2ccc3sncc3c2)c(C(F)(F)F)c1` gave a melting point of 188 °C.

Turning to `CC1(C)CCC(C)(C)c2c(CC#Cc3ccc(C(=O)O)cc3)cc(-c3ccccc3)cc21`, the melting point came out at 228 °C.

Compound `CC(C)(C)OC(=O)NCCCc1ccccc1O` came in with a melting point of 75 to 77 °C.

In turn, `O=[N+]([O-])c1cccc(OCCCl)c1` had a melting point of 54.5 to 57 °C.

The compound `CN1Cc2c(F)ncn2-c2ccccc2C1=O` returned a melting point of 171 to 172 °C.

Take `Cc1ccc(-c2ccccc2C(=O)NCCC#N)cc1`: the melting point lay within 102 to 104 °C.

In the case of `COc1ccc(-c2cnc(-c3ccncc3)o2)cc1`, the melting point is 105 to 107 °C.

`COC(=O)CCC(=O)c1ccc(-c2ccc(Br)cc2F)cc1` came in with a melting point of 94 to 95 °C.

Compound `COC(=O)c1ccccc1Nc1cccc(C(C)N(O)C(C)=O)c1Cl` (stereo not drawn) came in with a melting point of 171 to 172 °C.

`Cc1cc(-c2noc(C(F)F)n2)cc(C)c1OCCCc1n[nH]c(=O)s1` gave a melting point of 110 to 111 °C.

Take `COc1ccc(C(O)c2cccnc2)cc1OC` (stereo not drawn): the melting point fell in the range of 76 to 78 °C.

In turn, `COC(=O)C(Br)(C1=NCCCS1)[N+](=O)[O-]` (stereo not drawn) gave a melting point of 88.5 to 93 °C.

The compound `COC(=O)[C@@](C#N)(Cc1ccccn1)[C@H](c1ccccc1OC)c1cccc2ccccc12` (relative stereo) came in with a melting point of 194 to 196 °C.

On to `ClCCCOc1ccc(Cl)cc1`, for which the melting point lay in the range of 35 to 36 °C.

As for `COC(=O)c1cncc(OCc2ccc(OCc3nc(-c4ccccc4)oc3C)cc2)c1`, the melting point lay within 138 to 139 °C.

`O=C(O)CCc1cn(Cc2ccc3cc(OCc4cccnc4)ccc3c2)cc1-c1ccccc1` had a melting point of 158 to 159 °C.

Regarding `O=C(O)c1cc(-c2ccccc2)ccc1O`, the melting point fell in the range of 214 to 216 °C.

With `CCCCCCCCCCCCCCCCCC(=O)Nc1cccc(N(CC(=O)O)CC(=O)O)c1`, the melting point lay within 135 to 140 °C.

Turning to `COc1cccc(C=NNc2ncc(COc3cccc(C(=O)Nc4ccc(C(C)C)c(C)c4)c3)c3ccccc23)c1`, the melting point was 125 to 129 °C.

Turning to `Cc1nc(-c2ccccc2)nc(-c2cccc([N+](=O)[O-])c2)c1CO`, the melting point lay within 177 to 178 °C.

Compound `Cc1cccc(-c2ccc(NC(=O)Nc3ccc(Oc4cc(N)ncn4)cc3)cc2C(F)(F)F)n1` showed a melting point of 130 to 133 °C.

For the compound `Cc1c(-c2ccccc2)oc2c(CCl)cccc2c1=O`, the melting point lay within 112 to 113 °C.

On to `COc1cc(C(C)C)ccc1C1(O)C(=O)c2ccc(N)c(NC(C)=O)c2C1=O` (stereo not drawn), for which the melting point was in the range of 124 to 131 °C.

`CN(Cc1ccc(NC(=O)C2=Cc3cc(-c4ccc5c(c4)OCCO5)ccc3S(=O)(=O)CC2)cc1)C1CCOCC1` returned a melting point of 248 to 251 °C.

In turn, `CCOc1nc(N2CCN(C(=O)CCC(=O)O)CC2)nc(N2CCS(=O)CC2)c1[N+](=O)[O-]` registered a melting point of 198 to 200 °C.

Regarding `COc1cc(C(C)C#Cc2cnc(N)nc2N)cc(OC)c1OC` (stereo not drawn), the melting point was in the range of 220 to 222 °C.

For `Nc1cnc(-c2cc(Cl)cc(Cl)c2Cl)c(N)n1`, the melting point fell in the range of 178 to 180 °C.

In the case of `COC(=O)c1c(C)oc2ccccc2c1=O`, the melting point lay in the range of 116 to 118 °C.

The compound `CN(C)c1ccc(-n2ccn(C3CCc4ccccc4C3)c2=S)nn1` (stereo not drawn) had a melting point of 198 to 199 °C.

`CCC1(CC(=O)O)OCC(=O)c2c1[nH]c1ccccc21` (stereo not drawn) had a melting point of 235 to 238 °C.

In the case of `CC(=O)NCc1ccc(CN2CCN(c3ccc(F)cc3)CC2)cc1`, the melting point was 164 to 166 °C.

On to `COc1cccc2c(CCNC3COc4c(F)ccc(C(N)=O)c4C3)coc12` (stereo not drawn), for which the melting point was 172 to 174 °C.

In the case of `N#Cc1ccc2sc(CBr)nc2c1`, the melting point lay in the range of 185 to 186 °C.

On to `CCc1ccccc1Sc1c(O)cc(-c2ccccc2)oc1=O`, for which the melting point lay in the range of 190 to 192 °C.

By melting point is commonly meant the temperature, or range, at which the solid turns liquid.
